Reference: US6573286B1, “2-(2,6-disubstituted phenyl)-4-aryl-5-alkyl-1,3-oxazoline compounds” (Dow AgroSciences LLC, priority 2002, dated 2003)

Assays:
Type in all cases: in vivo
[1] = test system: cotton aphid (Aphis gossypii); assay: Insecticidal test for cotton aphid, sprayed squash cotyledons; conditions: 50 ppm spray, graded after 3 days
Procedure: Insecticidal test for cotton aphid (Aphis gossypii) To prepare spray solutions, 1 mg of each test compound was dissolved into 1 mL of a 90:10 acetone:ethanol solvent. This 1 mL of chemical solution was added to 19 mL of water containing 0.05% Tween 20 surfactant to produce a 50 ppm spray solution. Squash cotyledons were infested with cotton aphid (all life stages) 16-20 hours prior to application of spray solution. The solution was sprayed on both sides of each infested squash cotyledon (0.5 mL×2 each side) with a sweeping action until runoff. The plants were allowed to air dry and held for 3 days in a controlled room at 26° C. and 40% RH after which time the test was graded. Grading was by actual count using a dissecting microscope and comparison of test counts to the untreated check.

[2] = test system: beet armyworm (Spodoptera exigua); assay: Insecticidal test for beet armyworm, treated lepidopteran diet; conditions: Spodoptera exigua, 120 h, 2nd instar larvae on treated diet, 5 days, read-out: BAW: activity against beet armyworm (% Control rating)
Procedure: (§1) Insecticidal test for tobacco budworm (Heliothis virescens), beet armyworm (Spodoptera exigua), and cabbage looper (Trichoplusia ni). To prepare test solution, the test compound was formulated at 400 ppm in 7.5 mL of 2 acetone:1 tap water. 250 μL of the test solution was pipetted upon the surface of 8 mL of lepidopteran diet (modified Shorey) contained in each of five one-ounce plastic cups (one cup=1 replication). […] After air-drying, the treated leaf discs were placed individually into one-ounce plastic cups. Each dried, treated cotton cotyledon disc was infested with a 2nd instar tobacco budworm larva, and each cabbage leaf disc was infested with a 2nd instar cabbage looper larva. Cups containing the treated substrates and larvae were capped and then held in a growth chamber at 25° C., 50-55% RH, and 14 hr light:10 hr dark for 5 days.

[3] = test system: cabbage looper (Trichoplusia ni); assay: Insecticidal test for cabbage looper, treated cabbage leaf disc; conditions: Trichoplusia ni, foliar, 120 h, 2nd instar larvae on dipped cabbage leaf discs, 5 days, read-out: CL: activity against cabbage looper (% Control rating)
Procedure: as §1

[4] = test system: two-spotted spider mite (Tetranychus urticae); assay: Insecticidal test for two-spotted spider mite, ovicide method; conditions: Tetranychus urticae, foliar, 144 h, ovicide method on cotton leaf discs, 6 days, read-out: SM: activity against two-spotted spider mite (% Control rating)
Procedure: Insecticidal test for two-spotted spider mite (Tetranychus urticae) Ovicide Method: Ten adult female two-spotted spider mites were placed on eight 2.2 cm leaf discs of cotton leaf, allowed to oviposit over 24 hours, and thereafter removed. […] Discs were placed on an agar substrate and held at 24° C. and 90% RH for 6 days.

[5] = test system: tobacco budworm (Heliothis virescens); assay: Insecticidal test for tobacco budworm, treated cotton cotyledon leaf disc; conditions: Heliothis virescens, foliar, 120 h, 2nd instar larvae on dipped cotton cotyledon discs, 5 days, read-out: TBW: activity against tobacco budworm (% Control rating)
Procedure: as §1

[6] = test system: Sweetpotato Whitefly (Bemisia tabacia); assay: Insecticidal test for Sweetpotato Whitefly, sprayed cotton plants; conditions: Bemisia, 312 h, 200 ppm spray, large nymphs counted after 13 days, read-out: WF: activity against whitefly (% Control rating)
Procedure: Insecticidal test for Sweetpotato Whitefly (Bemisia tabacia) Four mg of each test compound were dissolved by adding 4 mL of a 90:10 acetone:ethanol solvent mixture to the vial containing the sample compound. This solution was added to 16 mL of water containing 0.05% Tween 20 surfactant to produce 20 mL of a 200 ppm spray solution. Five-week-old cotton plants reared in a greenhouse were stripped of all foliage except for the two uppermost true leaves that were greater than 5 cm in diameter. These plants were then placed into a laboratory colony of whiteflies for two days for oviposition by the colony females. All whiteflies were then removed from the test plants with pressurized air. The spray solution was then applied to the test plants with a hand-held syringe fitted with hollow cone nozzle. One mL spray solution was applied to each leaf top and bottom for a total of 4 mL per plant. Four replications of each test compound utilized a total of 16 mL spray solution. Plants were air dried and then placed in a holding chamber (28° C. and 60% RH) for 13 days. Compound efficacy was evaluated by counting, under an illuminated magnifying glass, the number of large nymphs (3rd-4th instar) per leaf. Percent control based on reduction of large nymphs of a test compound compared to solution-only (no test compound) sprayed plants is reported in Table 1-8.

Question: What does the source list for `C[C@@H]1OC(c2c(F)cccc2F)=N[C@@H]1c1ccc(I)cc1` (racemic) [Compound 1, (4R,5S)- and (4S,5R)-4-(4-iodophenyl)-2-(2,6-difluorophenyl)-5-methyl-4,5-dihydro-1,3-oxazole]?
Answer: CA: activity against cotton aphid (% Control rating) [1]: A (90-100); pest or weed control at 400 ppm [2]: < 50%; pest or weed control at 400 ppm [3]: 60 to 69%; pest or weed control at 2.5 ppm [4]: 90 to 100%; pest or weed control at 400 ppm [5]: < 50%; pest or weed control at 200 ppm [6]: 60 to 69%
